Source: patent US20180105838A1, “PROCESS FOR DE NOVO MICROBIAL SYNTHESIS OF TERPENES” (BASF SE, priority 2015, published 2018)

Assays:
[1] = system: Methylobacterium extorquens AM1; type: cell-based
Procedure: (§1) 1.6 Dodecane and α-Humulene Tolerance of M. extorquens AM1
M. extorquens AM1 precultures were cultured in test tubes with 5 ml methanol minimal medium (MM) for 48 h. The tolerance of M. extorquens AM1 towards 20% (v/v) dodecane was studied by growth comparison ( OD600) of cultures containing 15 ml MM and cultures with 12 ml MM and 3 ml dodecane. The cultures for the growth comparison with and without dodecane were inoculated from one preculture.

[2] = system: Methylobacterium extorquens AM1; experiment: α-humulene tolerance of M. extorquens AM1 (growth rate comparison, OD600); type: cell-based; conditions: FIG. 3
Procedure: as §1
The α-humulene tolerance was tested in two ways: tolerance towards α-humulene added directly to the aqueous phase and tolerance towards α-humulene dissolved in the organic dodecane layer. For the first experiment, pure α-humulene dissolved in ethanol was added to 100 ml baffled shaker flasks containing 15 ml MM with end concentrations of α-humulene of 1000, 500, 250, 100, 50, 25, 10 and 5 mg/L. Corresponding quantities of ethanol were added to the MM as negative controls. The flasks with the different α-humulene concentrations and the corresponding negative controls were inoculated with a preculture without α-humulene to an OD600 of 0.1. The OD600 was recorded over 30 h.
For the second said experiment, pure α-humulene was dissolved in dodecane and solutions with 1000, 500, 100, 50 and 10 mg/L α-humulene prepared. Two cultures each with 12 ml MM and 3 ml dodecane for each α-humulene concentration were inoculated to an OD600 of 0.1 from a preculture of M. extorquens AM1 without dodecane. Cultures with dodecane without α-humulene were used as negative controls. OD600 was measured over 30 h.
Terpenes often have toxic effects on bacteria. The toxicity of α-humulene to M. extorquens was studied by growth analyses in the presence of different α-humulene concentrations. […]

Structure (SMILES) | toxic effects or influence on growth [1] | growth-inhibiting effect (growth rate μ compared with μmax without α-humulene) ([2]; α-humulene dissolved directly in the aqueous phase, even at concentrations of 1 g/l) | influence on growth (growth rate μ compared with μmax without α-humulene) ([2]; α-humulene dissolved in the dodecane phase as second organic phase)
CCCCCCCCCCCC [dodecane] | without any toxic effects or influence on growth being observable | – | –
C/C1=C\CC/C(C)=C/CC(C)(C)/C=C/C1 [α-humulene] | – | only minimal growth-inhibiting effects | slightly lesser influence than in the aqueous phase
